Reference: patent US4119667A, “Haloaniline derivatives as plant growth modifiers” (Rohm and Haas Company, priority 1974, dated 1978)
Like-named read-outs stand apart in the source and are kept apart here.

Assays:
soybean (Var. Clark) [1] = assay: effect of haloaniline derivatives on soybean yields at different rates and stages of growth (Table VIII); format: in vivo
Experimental: a further experiment was conducted to determine the effect of selected haloaniline derivatives on soybean yields at different rates of application, and at differing stages of growth.
Soybeans (Var. Clark) were planted at the rate of 4 seeds per 6 inch pot in a medium of 1 part humus and 2 parts soil. Two weeks after planting two uniform plants were selected from each pot for treatment. The soybeans were treated weekly with a high analysis liquid fertilizer. The candidate compounds were dissolved in acetone-water (1:1) and applied at three timings as a foliar spray in a carrier volume of 50 gallons per acre using a moving belt sprayer at rates ranging from 0.1 to two lbs. per acre. Six plants were used for each treatment. The beans were harvested eight weeks after the third treatment and the seeds and pods per plant were counted.

soybean (Var. Clark) [2] = assay: greenhouse growth regulator test on soybean (Table I); format: in vivo; settings: two weeks after application; for Injury (0-10): 0-10 scale, 0 = no effect, 10 = complete kill; for pest or weed control / pest or weed control at 2241.7 g/ha: Glycine max, foliar, 336 h, relative to control, read-out: Height (% inhib.)
Source text: Limited greenhouse experiments shown that there is promotion of lateral bud growth when compounds are applied at higher concentrations and earlier timings and an increase in soybean pod numbers at lower rates applied just prior to or at the flowering stage. […] Three parameters are reported in Table I to indicate the general spectrum of activity for each evaluated compound including the propensity for releasing lateral bud growth in soybeans. These are: (a) plant height measured as percent inhibition relative to the control; (b) the number of lateral buds per plant; and (c) phytotoxic injury on a scale of 0 to 10 (10 being maximum injury). Sampling compounds were evaluated in the greenhouse in a special growth regulator test. Four to five soybean seeds (Var. Clark) were planted in 4-inch pots with a humus-soil mixture. Two weeks after planting, two uniform plants were selected from each pot for treatment. The candidate compounds were dissolved in acetone-water (1:1), and applied as a foliar spray in a carrier volume of 50 gallons per acre, using a moving belt sprayer at a rate of 1/4, 1/2 and 2 lbs/acre. Six plants were used for each treatment. Two weeks after application, the number of laterals per plant, plant injury (0-10 scale; 0 = no effect, 10 = complete kill,) and the height of each plant were recorded. Untreated plants were used as controls.

Clc1cc(Cl)cc(NCNc2cc(Cl)cc(Cl)c2)c1 [I, N,N'-Bis[3,5-dichlorophenyl]methanediamine]
Pods per Plant (soybean (Var. Clark) [1]; 2nd treatment, 0.10 lbs./A): 24.5 | Seeds per Plant (soybean (Var. Clark) [1]; 2nd treatment, 0.10 lbs./A): 42.7 | Seeds per Pod (soybean (Var. Clark) [1]; 2nd treatment, 0.10 lbs./A): 1.7 | Pods per Plant (soybean (Var. Clark) [1]; 2nd treatment, 0.30 lbs./A): 14.5 | Seeds per Plant (soybean (Var. Clark) [1]; 2nd treatment, 0.30 lbs./A): 9.3 | Seeds per Pod (soybean (Var. Clark) [1]; 2nd treatment, 0.30 lbs./A): 0.6 | Pods per Plant (soybean (Var. Clark) [1]; 2nd treatment, 0.90 lbs./A): 9.0 | Seeds per Plant (soybean (Var. Clark) [1]; 2nd treatment, 0.90 lbs./A): 4.3 | Seeds per Pod (soybean (Var. Clark) [1]; 2nd treatment, 0.90 lbs./A): 0.5 | Pods per Plant (soybean (Var. Clark) [1]; 3rd treatment, 0.10 lbs./A): 7.0 | Seeds per Plant (soybean (Var. Clark) [1]; 3rd treatment, 0.10 lbs./A): 12.8 | Seeds per Pod (soybean (Var. Clark) [1]; 3rd treatment, 0.10 lbs./A): 1.8 | Pods per Plant (soybean (Var. Clark) [1]; 3rd treatment, 0.30 lbs./A): 8.3 | Seeds per Plant (soybean (Var. Clark) [1]; 3rd treatment, 0.30 lbs./A): 13.3 | Seeds per Pod (soybean (Var. Clark) [1]; 3rd treatment, 0.30 lbs./A): 1.6 | Pods per Plant (soybean (Var. Clark) [1]; 3rd treatment, 0.90 lbs./A): 7.2 | Seeds per Plant (soybean (Var. Clark) [1]; 3rd treatment, 0.90 lbs./A): 13.3 | Seeds per Pod (soybean (Var. Clark) [1]; 3rd treatment, 0.90 lbs./A): 1.5 | No. Laterals per plant (soybean (Var. Clark) [2]; 1/2 lbs/acre foliar spray): 3 | Injury (0-10) (soybean (Var. Clark) [2]; 1/2 lbs/acre): 0 | No. Laterals per plant (soybean (Var. Clark) [2]; 1/4 lbs/acre foliar spray): 1 | Injury (0-10) (soybean (Var. Clark) [2]; 1/4 lbs/acre): 0 | No. Laterals per plant (soybean (Var. Clark) [2]; 2 lbs/acre foliar spray): 5 | Injury (0-10) (soybean (Var. Clark) [2]; 2 lbs/acre): 1 | pest or weed control (soybean (Var. Clark) [2]; 1/2 lbs/acre foliar spray): 4% | pest or weed control (soybean (Var. Clark) [2]; 1/4 lbs/acre foliar spray): 5% | pest or weed control at 2241.7 g/ha (soybean (Var. Clark) [2]; 2 lbs/acre foliar spray): 17%

Clc1cc(Cl)cc(N=Cc2ccccc2)c1 [IV, 3,5-dichloro-N-benzylideneaniline]
Pods per Plant (soybean (Var. Clark) [1]; 2nd treatment, 0.10 lbs./A): 8.3 | Seeds per Plant (soybean (Var. Clark) [1]; 2nd treatment, 0.10 lbs./A): 8.3 | Seeds per Pod (soybean (Var. Clark) [1]; 2nd treatment, 0.10 lbs./A): 1.0 | Pods per Plant (soybean (Var. Clark) [1]; 2nd treatment, 0.30 lbs./A): 0.7 | Seeds per Plant (soybean (Var. Clark) [1]; 2nd treatment, 0.30 lbs./A): 1.0 | Seeds per Pod (soybean (Var. Clark) [1]; 2nd treatment, 0.30 lbs./A): 1.5 | Pods per Plant (soybean (Var. Clark) [1]; 2nd treatment, 0.90 lbs./A): 2.7 | Seeds per Plant (soybean (Var. Clark) [1]; 2nd treatment, 0.90 lbs./A): 3.2 | Seeds per Pod (soybean (Var. Clark) [1]; 2nd treatment, 0.90 lbs./A): 1.2 | Pods per Plant (soybean (Var. Clark) [1]; 3rd treatment, 0.10 lbs./A): 16.5 | Seeds per Plant (soybean (Var. Clark) [1]; 3rd treatment, 0.10 lbs./A): 37.0 | Seeds per Pod (soybean (Var. Clark) [1]; 3rd treatment, 0.10 lbs./A): 2.2 | Pods per Plant (soybean (Var. Clark) [1]; 3rd treatment, 0.30 lbs./A): 13.2 | Seeds per Plant (soybean (Var. Clark) [1]; 3rd treatment, 0.30 lbs./A): 23.3 | Seeds per Pod (soybean (Var. Clark) [1]; 3rd treatment, 0.30 lbs./A): 1.7 | Pods per Plant (soybean (Var. Clark) [1]; 3rd treatment, 0.90 lbs./A): 19.3 | Seeds per Plant (soybean (Var. Clark) [1]; 3rd treatment, 0.90 lbs./A): 37.7 | Seeds per Pod (soybean (Var. Clark) [1]; 3rd treatment, 0.90 lbs./A): 1.9 | No. Laterals per plant (soybean (Var. Clark) [2]; 1/2 lbs/acre foliar spray): 2 | Injury (0-10) (soybean (Var. Clark) [2]; 1/2 lbs/acre): 0 | No. Laterals per plant (soybean (Var. Clark) [2]; 1/4 lbs/acre foliar spray): 3 | Injury (0-10) (soybean (Var. Clark) [2]; 1/4 lbs/acre): 0 | No. Laterals per plant (soybean (Var. Clark) [2]; 2 lbs/acre foliar spray): 5 | Injury (0-10) (soybean (Var. Clark) [2]; 2 lbs/acre): 1 | pest or weed control (soybean (Var. Clark) [2]; 1/2 lbs/acre foliar spray): 5% | pest or weed control (soybean (Var. Clark) [2]; 1/4 lbs/acre foliar spray): 7% | pest or weed control at 2241.7 g/ha (soybean (Var. Clark) [2]; 2 lbs/acre foliar spray): 17%

Clc1ccc(N=Cc2ccccc2)cc1Cl [XIII, 3,4-Dichloro-N-benzylideneaniline]
Pods per Plant (soybean (Var. Clark) [1]; 2nd treatment, 0.10 lbs./A): 13.7 | Seeds per Plant (soybean (Var. Clark) [1]; 2nd treatment, 0.10 lbs./A): 20.5 | Seeds per Pod (soybean (Var. Clark) [1]; 2nd treatment, 0.10 lbs./A): 1.5 | Pods per Plant (soybean (Var. Clark) [1]; 2nd treatment, 0.30 lbs./A): 12.0 | Seeds per Plant (soybean (Var. Clark) [1]; 2nd treatment, 0.30 lbs./A): 17.7 | Seeds per Pod (soybean (Var. Clark) [1]; 2nd treatment, 0.30 lbs./A): 1.5 | Pods per Plant (soybean (Var. Clark) [1]; 2nd treatment, 0.90 lbs./A): 5.2 | Seeds per Plant (soybean (Var. Clark) [1]; 2nd treatment, 0.90 lbs./A): 6.7 | Seeds per Pod (soybean (Var. Clark) [1]; 2nd treatment, 0.90 lbs./A): 1.3 | Pods per Plant (soybean (Var. Clark) [1]; 3rd treatment, 0.10 lbs./A): 5.5 | Seeds per Plant (soybean (Var. Clark) [1]; 3rd treatment, 0.10 lbs./A): 7.8 | Seeds per Pod (soybean (Var. Clark) [1]; 3rd treatment, 0.10 lbs./A): 1.4 | Pods per Plant (soybean (Var. Clark) [1]; 3rd treatment, 0.30 lbs./A): 11.0 | Seeds per Plant (soybean (Var. Clark) [1]; 3rd treatment, 0.30 lbs./A): 17.2 | Seeds per Pod (soybean (Var. Clark) [1]; 3rd treatment, 0.30 lbs./A): 1.6 | Pods per Plant (soybean (Var. Clark) [1]; 3rd treatment, 0.90 lbs./A): 9.3 | Seeds per Plant (soybean (Var. Clark) [1]; 3rd treatment, 0.90 lbs./A): 16.7 | Seeds per Pod (soybean (Var. Clark) [1]; 3rd treatment, 0.90 lbs./A): 1.8 | No. Laterals per plant (soybean (Var. Clark) [2]; 1/2 lbs/acre foliar spray): 4 | Injury (0-10) (soybean (Var. Clark) [2]; 1/2 lbs/acre): 0 | No. Laterals per plant (soybean (Var. Clark) [2]; 1/4 lbs/acre foliar spray): 2 | Injury (0-10) (soybean (Var. Clark) [2]; 1/4 lbs/acre): 1 | No. Laterals per plant (soybean (Var. Clark) [2]; 2 lbs/acre foliar spray): 3 | Injury (0-10) (soybean (Var. Clark) [2]; 2 lbs/acre): 4 | pest or weed control (soybean (Var. Clark) [2]; 1/2 lbs/acre foliar spray): 9% | pest or weed control (soybean (Var. Clark) [2]; 1/4 lbs/acre foliar spray): 17% | pest or weed control at 2241.7 g/ha (soybean (Var. Clark) [2]; 2 lbs/acre foliar spray): 19%

O=CNc1cc(Cl)cc(Cl)c1 [XVIII, 3',5'-dichloroformanilide]
Pods per Plant (soybean (Var. Clark) [1]; 1st treatment, 0.25 lbs./A): 1.4 | Seeds per Plant (soybean (Var. Clark) [1]; 1st treatment, 0.25 lbs./A): 0.0 | Seeds per Pod (soybean (Var. Clark) [1]; 1st treatment, 0.25 lbs./A): 0.0 | Pods per Plant (soybean (Var. Clark) [1]; 1st treatment, 0.50 lbs./A): 0.8 | Seeds per Plant (soybean (Var. Clark) [1]; 1st treatment, 0.50 lbs./A): 1.0 | Seeds per Pod (soybean (Var. Clark) [1]; 1st treatment, 0.50 lbs./A): 1.3 | Pods per Plant (soybean (Var. Clark) [1]; 1st treatment, 1.00 lbs./A): 0.0 | Seeds per Plant (soybean (Var. Clark) [1]; 1st treatment, 1.00 lbs./A): 0.0 | Seeds per Pod (soybean (Var. Clark) [1]; 1st treatment, 1.00 lbs./A): 0.0 | Pods per Plant (soybean (Var. Clark) [1]; 1st treatment, 2.00 lbs./A): 0.0 | Seeds per Plant (soybean (Var. Clark) [1]; 1st treatment, 2.00 lbs./A): 0.0 | Seeds per Pod (soybean (Var. Clark) [1]; 1st treatment, 2.00 lbs./A): 0.0 | Pods per Plant (soybean (Var. Clark) [1]; 2nd treatment, 0.10 lbs./A): 16.2 | Seeds per Plant (soybean (Var. Clark) [1]; 2nd treatment, 0.10 lbs./A): 17.5 | Seeds per Pod (soybean (Var. Clark) [1]; 2nd treatment, 0.10 lbs./A): 1.1 | Pods per Plant (soybean (Var. Clark) [1]; 2nd treatment, 0.30 lbs./A): 9.2 | Seeds per Plant (soybean (Var. Clark) [1]; 2nd treatment, 0.30 lbs./A): 6.3 | Seeds per Pod (soybean (Var. Clark) [1]; 2nd treatment, 0.30 lbs./A): 0.7 | Pods per Plant (soybean (Var. Clark) [1]; 2nd treatment, 0.90 lbs./A): 0.5 | Seeds per Plant (soybean (Var. Clark) [1]; 2nd treatment, 0.90 lbs./A): 0.5 | Seeds per Pod (soybean (Var. Clark) [1]; 2nd treatment, 0.90 lbs./A): 1.0 | Pods per Plant (soybean (Var. Clark) [1]; 3rd treatment, 0.10 lbs./A): 9.3 | Seeds per Plant (soybean (Var. Clark) [1]; 3rd treatment, 0.10 lbs./A): 15.2 | Seeds per Pod (soybean (Var. Clark) [1]; 3rd treatment, 0.10 lbs./A): 1.6 | Pods per Plant (soybean (Var. Clark) [1]; 3rd treatment, 0.30 lbs./A): 5.2 | Seeds per Plant (soybean (Var. Clark) [1]; 3rd treatment, 0.30 lbs./A): 10.5 | Seeds per Pod (soybean (Var. Clark) [1]; 3rd treatment, 0.30 lbs./A): 2.0 | Pods per Plant (soybean (Var. Clark) [1]; 3rd treatment, 0.90 lbs./A): 5.2 | Seeds per Plant (soybean (Var. Clark) [1]; 3rd treatment, 0.90 lbs./A): 9.5 | Seeds per Pod (soybean (Var. Clark) [1]; 3rd treatment, 0.90 lbs./A): 1.8 | No. Laterals per plant (soybean (Var. Clark) [2]; 1/2 lbs/acre foliar spray): 5 | Injury (0-10) (soybean (Var. Clark) [2]; 1/2 lbs/acre): 1 | No. Laterals per plant (soybean (Var. Clark) [2]; 1/4 lbs/acre foliar spray): 4 | Injury (0-10) (soybean (Var. Clark) [2]; 1/4 lbs/acre): 0 | No. Laterals per plant (soybean (Var. Clark) [2]; 2 lbs/acre foliar spray): 5 | Injury (0-10) (soybean (Var. Clark) [2]; 2 lbs/acre): 1 | pest or weed control (soybean (Var. Clark) [2]; 1/2 lbs/acre foliar spray): 11% | pest or weed control (soybean (Var. Clark) [2]; 1/4 lbs/acre foliar spray): 3% | pest or weed control at 2241.7 g/ha (soybean (Var. Clark) [2]; 2 lbs/acre foliar spray): 15%
